How the values were obtained:
UPR = assay: Induction of UPR by candidate inducers, EGFP read-out from SYNP-ATF6-02; format: cell-based, human; details: HEK293F with SYNP-ATF6-02; DTT 2 mM, palmitate 0.5 mM, MF-43 1 μM; 0-24 hrs
Method: Experiments were performed to assess the ability of several candidate agents to induce the UPR. The ability of these candidate inducers to induce UPR was assessed using the techniques essentially as described above. The additional candidates tested were 0.5 mM palmitic acid, 1 uM MF-43 (2-methyl-5-(6-(4-(2-(trifluoromethyl)phenoxy)piperidin-1-yl)pyridazin-3-yl)-1,3,4-thiadiazole), which is an inhibitor of stearoyl-CoA desaturase, and a combination of both of these (for the same concentrations of each was used).
In these experiments transfections were done in 24-well plates as previously described. The SYNP-ATF6-02 plasmid (i.e. SYNP-ATF6-02 in pMA-RQ vector) was transfected into HEK293F cells and after 24 hrs GFP was measured. Induction of the UPR was then stimulated using the aforementioned inducers and samples were taken and measured at 0, 1, 3, 5 and 24 hrs after induction. GFP expression was measured as previously described. Results are the average of 3 individual experiments and the error bars represent the standard deviation.
Experimental procedure in brief: • 40 ml of cells were grown in a 250 ml vented Erlenmeyer flask (Sigma-Aldrich CLS431144) at 37° C., 8% CO2 with agitation at 100 rpm. […]
AAV production on induction of UPR: The ATF6 plasmid (i.e. SYNP-ATF6-02 in pMA-RQ vector) was transfected into HEK293 cells as previously described. 24 hrs later GFP was measured. […] EGFP fluorescence was then measured after 1, 3, 5 and 24 hrs. […]

HEK293F cells = assay: EGFP fluorescence from regulatable-intron construct before and after UPR induction with 2 mM DTT; format: cell-based, human
Method: (§1) The standard protocol for transfection of these cells was modified for 24 well plates as follows: • 40 ml of cells were grown in a 250 ml vented Erlenmeyer flask (Sigma-Aldrich CLS431144) at 37° C., 8% CO2 with agitation at 100 rpm. Cells were seeded as described in the manufacturer's instructions. • 1 day before transfection cells were counted using a haemocytometer and split to 500,000 cells/ml. • On the day of transfection cells are seeded to 1 million cells/ml in 500 μl of appropriate medium in a 24 well plate. • 0.625 μg of DNA/well was then added to 10 μl of OptiMem medium (Thermofisher; 11058021) and incubated for 5 minutes at room temperature. • Concurrently 0.625 μl of Max reagent was made up to 10 μl by addition of OptiMem and incubated for 5 minutes at room temperature. • After this incubation both mixes were added to the same tube and incubated at room temperature for 25-30 minutes. • The DNA/Max reagent mix (20 μl/well) was then added directly to the cells and the cells incubated as described previously. • Cells were then measured for GFP fluorescence after 24 hrs. • Intron splicing from the GFP construct was measured via addition of 2 mM DTT and monitoring of GFP fluorescence after 1 hr. DTT is a strong reducing agent which induces ER stress by disrupting the formation of disulphide bonds within the ER. […]

CHO-S cells = assay: as above; format: cell-based, Chinese hamster
Method: as §1

HEK293 cells [1] = assay: SEAP activity from intron-containing SEAP construct after DTT induction; format: cell-based, human
Method: (§2) Experiments were performed essentially as described in the above methods, namely, HEK or CHO-s cells were transfected with the aforementioned construct (pMA-RQ) and incubated for 24 hrs. After this time the activating compound DTT was added at 2 mM final concentration, SEAP activity was then measured at 3, 5 and 24 hrs post-induction.
(§3) The protocol for transfection for 24 well plates was as described in Example 1. Thereafter: • Supernatant was measured for SEAP activity after 24 hrs. • Intron splicing from the SEAP construct was measured after addition of either 2 mM DTT by monitoring of SEAP activity after 3, 5 and 24 hrs. • SEAP activity was measured as per manufacturer's instructions, Roche, SEAP reporter gene assay kit, obtained from Sigma-Aldrich, Cat. No. 11 779 842 001.

CHO cells = assay: as above; format: cell-based, Chinese hamster
Method: as §2, §3

HEK293 cells [2] = assay: Cell death (trypan blue) after induction of intron-controlled caspase 9; format: cell-based, human; details: HEK293 with SYNP-CASP9-INT, DTT 2 mM
Method: Transfection was performed as previously described. DTT was added at 2 mM and forskolin was added at 10 μM. The latter was carried out to determine whether forskolin could induce the removal of the intron. Amongst other things, forskolin has potential gene therapy applications. Induction of intron removal was measured as function of cell death, with higher cell death an indicator of removal of the intron.
Experiments were performed as described in the methods namely, HEK or CHO-s cells were transfected with the aforementioned construct and incubated for 24 h. After this time the activating compound DTT or Forskolin was added, % cell death was then measured at 3, 5 and 24 h post-induction.
Induction of intron was measured as function of cell death, using the Countess II cell counter (Thermofisher). Cells were stained with trypan blue to ascertain cell viability. 10 μl of cell suspension was added to a Haemocytomer and analysed on the countess.

HEK293-F cells = assay: Luciferase expression from UPR-inducible promoters with different minimal promoters after 2 mM DTT; format: cell-based, human
Excerpt: The purpose of this experiment was to test the ATF6-containing UPR-responsive cis-regulatory element (also referred to herein as an enhancer) as used in the examples above with different minimal promoters and to further assess their inducibility and tightness of control. To this end, the ATF6-containing UPR-responsive cis-regulatory element was operably linked to the CMV-MP and MinTK (herpes thymidine kinase minimal promoter) minimal promoters The constructs were synthesised by GeneART by chemical synthesis, as above.
As described above, the enhancer sequence contains 6 repeats of the sequence TGACGTGCT (which contains the ATF6 consensus sequence, TGACGTG) spaced by 20 bp spacer sequences. The enhancer sequence was coupled to either MinTK (in construct ATF06-MP001) or CMV-MP (in construct ATF06-MP002).
Transfection of HEK293-F cells was performed as previously described. DTT was added at a concentration of 2 mM. Luciferase activity was measured as previously described. The results are shown in FIG. 17—the DTT was added at time=0 h as shown on the X-axis (units are hours).

## Cc1nnc(-c2ccc(N3CCC(Oc4ccccc4C(F)(F)F)CC3)nn2)s1 [MF-43, 2-methyl-5-(6-(4-(2-(trifluoromethyl)phenoxy)piperidin-1-yl)pyridazin-3-yl)-1,3,4-thiadiazole]
UPR
  induction of UPR indicated by expression of functional EGFP: effectively induced the UPR

## SYNP-XBP-01: CMV-MP controlling expression of EGFP with XBP1 intron (SEQ ID NO: 28), in plasmid pMA-RQ
HEK293F cells; 2 mM DTT, 1 hr after treatment, 3 independent experiments
  GFP production induced upon inducing ER-Stress: 4-10 fold
HEK293F cells; after 2 mM DTT, control CMV-MP-GFP
  resultant GFP activity higher than the positive control: 2.5-7 fold
HEK293F cells; no DTT, versus control
  background GFP fluorescence before induction: considerably lower than the control
CHO-S cells; 2 mM DTT
  GFP fluorescence induced upon addition of 2 mM DTT: > 1000 fold
CHO-S cells; no DTT
  background GFP fluorescence before induction: no background at all

## CCCCCCCCCCCCCCCC(=O)O [palmitate, palmitic acid]
UPR
  induction of UPR indicated by expression of functional EGFP: effectively induced the UPR

## SEAP-ATF6-001: SEAP expression construct with 6×ATF6 spaced by 20 bp, CMV-MP and regulatable intron (SEQ ID NO: 34)
HEK293 cells [1]; HEK293, 2 mM DTT, 24 h
  SEAP expression after 24 h higher than CMV-IE: ~2 fold
HEK293 cells [1]; HEK293, no DTT
  SEAP expression before induction: no SEAP expression
CHO cells; 2 mM DTT, 24 h, CMV-IE shown in HEK293
  SEAP expression after 24 h higher than CMV-IE: ~2 fold
CHO cells; no DTT
  SEAP expression before induction: no SEAP expression

## O[C@H](CS)[C@H](O)CS (racemic) [DTT, Dithiothreitol]
UPR
  induction of UPR indicated by expression of functional EGFP: very potent inducer of the UPR
HEK293 cells [2]
  time after treatment at which % of dead cells is equal to the positive control: 5 h
HEK293 cells [2]; 3 h
  number of dead cells after 3 h: close to the control construct which contained no intron

## ATF06-MP001: ATF6 enhancer (6 repeats, 20 bp spacers) coupled to MinTK driving luciferase (SEQ ID NO: 59)
HEK293-F cells; 2 mM DTT
  inducibility of luciferase expression by DTT: good inducibility
  luciferase expression after induction of the UPR versus CMV-IE promoter: significantly higher than provided by the constitutive CMV-IE promoter
HEK293-F cells; before 2 mM DTT
  luciferase expression prior to addition of DTT: negligible expression

— patent US11492618B2, “Expression control using a regulatable intron” (ASKLEPIOS BIOPHARMACEUTICAL, INC., priority 2017, dated 2022)
